The record followed here is patent publication US10280150B2 (FORMA TM2, Inc., priority 2014, dated 2019).

The structures appear in SMILES notation. Read-outs that look alike come from different tables or passages of the source.

A word on the IC50: it is the point on the concentration scale where inhibition reaches its midpoint.

The target of test [1] is IDH1-R132H recombinant protein (Homo sapiens (Human), UniProt O75874, R132H). The test can be described thus: IDH1-R132H enzymatic assay (inhibition of NADPH consumption, diaphorase/resazurin readout). The class given is biochemical. The settings on record: read-out: Enzyme IDH1 R132H IC50 (Range). The method in brief:
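Compound was preincubated 15 min at 25 °C with 30 nM IDH1-R132H or 10 nM IDH1-R132C in Tris pH 7.5 buffer with MgCl2, BSA and Triton X-100. Reaction with 2 mM α-ketoglutarate and 20 μM NADPH (solution concentrations) ran 45 min at 25 °C. Remaining NADPH was detected via diaphorase/resazurin fluorescence (ex 535/em 590 nm), and IC50 came from four-parameter fits.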
For orientation: Resazurin is reduced to fluorescent resorufin, in cell work by metabolically active cells.

Test [2] concerns HCT116 isogenic IDH1-R132H mutant cells. The test can be described thus: Cellular 2-HG assay using HCT116 mutant IDH1 cells (R132H), RapidFire mass spectrometry. The class given is cell-based. The settings on record: Homo sapiens, read-out: HCT116 IDH1 R132H IC50 (Range). The procedure:
(§1) Example 106—Cellular 2-HG assay using HCT116 mutant IDH1 cells
(§2) HCT116 isogenic IDH1-R132H and IDH1-R132C mutant cells were cultured in growth media (McCoy's 5 A, 10% fetal bovine serum, 1× antibiotic-antimycotic solution and 0.3 mg/mL G418) in 5% CO2 in an incubator at 37° C. To prepare the assay, cells were trypsinized and resuspended in assay media (McCoy's 5 A with no L-glutamine, 10% fetal bovine serum, 1× antibiotic-antimycotic solution and 0.3 mg/mL G418). An aliquot of 10,000 cells/100 μL was transferred to each well of a clear 96-well tissue culture plate. The cells were incubated in 5% CO2 at 37° C. in an incubator overnight to allow for proper cell attachment. An aliquot of 50 μL of compound containing assay media were then added to each well and the assay plate was kept in 5% CO2 at 37° C. in an incubator for 24 hours. The media was then removed from each well and 150 μL of a methanol/water mixture (80/20 v/v) was added to each well. The plates were kept at −80° C. freezer overnight to allow for complete cell lysis. An aliquot of 125 μL of extracted supernatant was analyzed by RapidFire high-throughout-mass spectrometry (Agilent) to determine the cellular 2-HG level. The IC50 of a given compound was calculated by fitting the dose response curve of cellular 2-HG inhibition at a given concentration with the four parameter logistic equation.

For test [3], the target named is IDH1-R132C recombinant protein (Homo sapiens (Human), UniProt O75874, R132C). Kind of test: IDH1-R132C enzymatic assay (inhibition of NADPH consumption, diaphorase/resazurin readout). Type of test: biochemical. The settings on record: read-out: Enzyme IDH1 R132C IC50 (Range). The procedure:
Assays were performed in a 384-well black plate. An aliquot of 250 nL of compound was incubated with 10 μL of 30 nM IDH1-R132H or 10 nM IDH1-R132C recombinant protein in assay buffer (50 mM Tris pH=7.5, 150 mM NaCl, 5 mM MgCl2, 0.1% (w/v) Bovine Serum Albumin, and 0.01% Triton X-100) in each well at 25° C. for 15 minutes. After the plate was centrifuged briefly, an aliquot of 10 μL of 2 mM α-ketoglutarate and 20 μM NADPH solution prepared in assay buffer was then added to each well and the reaction was maintained at 25° C. for 45 minutes. An aliquot of 10 μL of diaphorase solution (0.15 U/mL diaphorase and 30 µM Resazurin in assay buffer) was added to each well. The plate was maintained at 25° C. for 15 minutes and then read on a plate reader with excitation and emission wavelengths at 535 nm and 590 nm, respectively. The IC50 of a given compound was calculated by fitting the dose response curve of inhibition of NADPH consumption at a given concentration with the four parameter logistic equation.

The subject of test [4] is HCT116 isogenic IDH1-R132C mutant cells. Kind of test: Cellular 2-HG assay using HCT116 mutant IDH1 cells (R132C), RapidFire mass spectrometry. The class given is cell-based. The settings on record: Homo sapiens, read-out: HCT116 IDH1 R132C IC50 (Range). As for the experimental part:
as §1, §2

[5] abbreviates: HCT-116, cellular 2-HG level, HCT116 IDH1-R132H cells, 24 hours.
Setting [6] is: HCT-116, cellular 2-HG level, HCT116 IDH1-R132C cells, 24 hours.

IDH1-R132C recombinant protein, sequence (O75874 whole entry R132C): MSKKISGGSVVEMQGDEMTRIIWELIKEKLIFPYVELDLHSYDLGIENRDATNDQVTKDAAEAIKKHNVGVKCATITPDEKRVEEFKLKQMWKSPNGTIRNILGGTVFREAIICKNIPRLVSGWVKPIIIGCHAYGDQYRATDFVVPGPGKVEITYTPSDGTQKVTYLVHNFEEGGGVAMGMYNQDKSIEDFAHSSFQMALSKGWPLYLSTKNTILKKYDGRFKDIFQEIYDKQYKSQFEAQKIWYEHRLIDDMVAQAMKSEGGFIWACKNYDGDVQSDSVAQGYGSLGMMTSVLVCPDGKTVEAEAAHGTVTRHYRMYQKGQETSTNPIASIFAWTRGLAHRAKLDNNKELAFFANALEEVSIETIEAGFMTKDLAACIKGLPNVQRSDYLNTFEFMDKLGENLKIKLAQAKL
IDH1-R132H recombinant protein, sequence (O75874 whole entry R132H): as the sequence (O75874 whole entry R132C) above, with C132H counted along it

For the molecule `COc1nc(N[C@@H](C)c2cc3cc(Cl)cc(F)c3[nH]c2=O)ncc1C#N` [Compound I-161, (S)-2-((1-(6-Chloro-8-fluoro-2-oxo-1,2-dihydroquinolin-3-yl)ethyl)amino)-4-methoxy pyrimidine-5-carbonitrile], the IC50 in test [1] is less than 100 nM; in test [2] (setting [5]), less than 100 nM; in test [3] it was 100 to 1000 nM; in test [4] (setting [6]), 100 to 1000 nM.

`COC(=O)Nc1ccnc(N[C@@H](C)c2cc3cc(Cl)ccc3[nH]c2=O)n1` [Compound I-22, (S)-Methyl (2-((1-(6-chloro-2-oxo-1,2-dihydroquinolin-3-yl)ethyl)amino)pyrimidin-4-yl) carbamate]: the IC50 in test [1] was less than 100 nM; in test [2] (setting [5]), less than 100 nM; in test [3] it was 100 to 1000 nM; in test [4] (setting [6]), less than 100 nM.

Take `C[C@H](Nc1nccc(-c2cccnc2)n1)c1cc2cc(Cl)ccc2[nH]c1=O` [Compound I-94]: the IC50 in test [1] is 100 to 1000 nM; in test [2] (setting [5]), less than 100 nM; in test [3], 100 to 1000 nM; in test [4] (setting [6]) it was 1000 to 10000 nM.

Regarding `Cc1cnccc1-c1ccnc(N[C@@H](C)c2cc3cc(Cl)ccc3[nH]c2=O)n1` [Compound I-96], the IC50 in test [1] was less than 100 nM; in test [2] (setting [5]) it was less than 100 nM; in test [3] it was 100 to 1000 nM; in test [4] (setting [6]) it was 100 to 1000 nM.

With `Cc1oncc1-c1ccnc(N[C@@H](C)c2cc3cc(Cl)ccc3[nH]c2=O)n1` [Compound I-58, (S)-6-Chloro-3-(1-((4-(5-methylisoxazol-4-yl)pyrimidin-2-yl)amino)ethyl)quinolin-2(1H)-one], the IC50 in test [1] was less than 100 nM; in test [2] (setting [5]), 1000 to 10000 nM; in test [3], 1000 to 10000 nM; in test [4] (setting [6]), 1000 to 10000 nM.

With `C[C@H](Nc1nccc(-c2ccccc2)n1)c1cc2cc(Cl)ccc2[nH]c1=O` [Compound I-101], the IC50 in test [1] was less than 100 nM; in test [2] (setting [5]), 100 to 1000 nM; in test [3], 100 to 1000 nM; in test [4] (setting [6]), 100 to 1000 nM.

Regarding `C[C@H](Nc1nccc(-c2cncn2C)n1)c1cc2cc(Cl)ccc2[nH]c1=O` [Compound I-71], the IC50 is less than 100 nM in test [1], less than 100 nM in test [2] (setting [5]), 100 to 1000 nM in test [3] and less than 100 nM in test [4] (setting [6]).

For `COC(=O)c1ccnc(N[C@@H](C)c2cc3cc(Cl)ccc3[nH]c2=O)n1` [Compound I-129], the IC50 in test [1] is 100 to 1000 nM; in test [2] (setting [5]), 1000 to 10000 nM; in test [3], 1000 to 10000 nM; in test [4] (setting [6]) it was 1000 to 10000 nM.

For `CC(C)Cn1cncc1-c1ccnc(N[C@@H](C)c2cc3cc(Cl)ccc3[nH]c2=O)n1` [Compound I-85], the IC50 in test [1], in test [2] (setting [5]), in test [3] and in test [4] (setting [6]) was 100 to 1000 nM each time.

In the case of `CC(=O)Nc1ccnc(N[C@@H](C)c2cc3cc(Cl)cnc3[nH]c2=O)n1` [Compound I-182], the IC50 in test [1] was less than 100 nM; in test [2] (setting [5]), 100 to 1000 nM; in test [3] it was 100 to 1000 nM; in test [4] (setting [6]), 100 to 1000 nM.

As to `C[C@H](Nc1nccc(-c2cncn2CC(F)(F)F)n1)c1cc2cc(Cl)ccc2[nH]c1=O` [Compound I-60, (S)-6-Chloro-3-(1-((4-(1-(2,2,2-trifluoroethyl)-1H-imidazol-5-yl)pyrimidin-2-yl)amino)ethyl)quinolin-2(1H)-one], the IC50 was less than 100 nM in test [1], less than 100 nM in test [2] (setting [5]), 100 to 1000 nM in test [3] and 100 to 1000 nM in test [4] (setting [6]).

As for `C[C@H](Nc1nccc(N2CCCS2(=O)=O)n1)c1cc2cc(Cl)ccc2[nH]c1=O` [Compound I-12, (S)-6-Chloro-3-(1-((4-(1,1-dioxidoisothiazolidin-2-yl)pyrimidin-2-yl)amino)ethyl)quinolin-2(1H)-one], the IC50 fell in the range of 100 to 1000 nM in test [1], 100 to 1000 nM in test [2] (setting [5]), 1000 to 10000 nM in test [3] and 100 to 1000 nM in test [4] (setting [6]).

Regarding `C[C@H](Nc1nccc([S@+](C)[O-])n1)c1cc2cc(Cl)ccc2[nH]c1=O` [Compound I-113], the IC50 in test [1] was less than 100 nM; in test [2] (setting [5]), less than 100 nM; in test [3], 100 to 1000 nM; in test [4] (setting [6]), 100 to 1000 nM.

With `C[C@H](Nc1nccc(-c2ccncc2)n1)c1cc2cc(Cl)ccc2[nH]c1=O` [Compound I-95], the IC50 lay within 100 to 1000 nM in test [1], 100 to 1000 nM in test [2] (setting [5]), 100 to 1000 nM in test [3] and 1000 to 10000 nM in test [4] (setting [6]).

As for `CC(C)n1cncc1-c1ccnc(N[C@@H](C)c2cc3cc(Cl)ccc3[nH]c2=O)n1` [Compound I-64, (S)-6-chloro-3-(1-((4-(1-isopropyl-1H-imidazol-5-yl)pyrimidin-2-yl)amino)ethyl) quinolin-2(1H)-one], the IC50 in test [1] is less than 100 nM; in test [2] (setting [5]), 100 to 1000 nM; in test [3], 100 to 1000 nM; in test [4] (setting [6]), 100 to 1000 nM.

Turning to `CNC(=O)c1ccnc(N[C@@H](C)c2cc3cc(Cl)ccc3[nH]c2=O)n1` [Compound I-115], the IC50 in test [1], in test [2] (setting [5]), in test [3] and in test [4] (setting [6]) was 100 to 1000 nM throughout.

In the case of `COc1nc(N[C@@H](C)c2cc3cc(Cl)c(F)cc3[nH]c2=O)ncc1C#N` [Compound I-181], the IC50 is less than 100 nM in test [1]; 100 to 1000 nM in test [2] (HCT-116, 24 h); 100 to 1000 nM in test [3]; 100 to 1000 nM in test [4] (HCT-116, 24 h).

As for `CC(=O)Nc1ccnc(N[C@@H](C)c2cc3cc(Cl)ccc3[nH]c2=O)n1` [Compound I-25, (S)—N-(2-((1-(6-Chloro-2-oxo-1,2-dihydroquinolin-3-yl)ethyl)amino)pyrimidin-4-yl)acetamide], the concentration for half-maximal inhibition (IC50) in test [1], in test [2] (setting [5]), in test [3] and in test [4] (setting [6]) was less than 100 nM throughout.

Turning to `CC(C)OC(=O)Nc1ccnc(N[C@@H](C)c2cc3cc(Cl)ccc3[nH]c2=O)n1` [Compound I-23, (S)-Isopropyl (2-((1-(6-chloro-2-oxo-1,2-dihydroquinolin-3-yl)ethyl)amino)pyrimidin-4-yl)carbamate], the IC50 in test [1] fell in the range of 1000 to 10000 nM; in test [2] (setting [5]), 100 to 1000 nM; in test [4] (setting [6]), 100 to 1000 nM.

`C[C@H](Nc1nccc(-c2cccn2C)n1)c1cc2cc(Cl)ccc2[nH]c1=O` [Compound I-81]: the IC50 in test [1] is less than 100 nM; in test [2] (setting [5]), 100 to 1000 nM; in test [4] (setting [6]) it was 100 to 1000 nM.

As to `COc1cc2[nH]c(=O)c([C@H](C)Nc3nccc(N4CCOC4=O)n3)cc2cc1Cl` [Compound I-147], the IC50 in test [1], in test [2] (setting [5]) and in test [4] (setting [6]) was less than 100 nM each time.

As for `C[C@H](Nc1nccc(N2CCN(C)C2=O)n1)c1cc2cc(Cl)ccc2[nH]c1=O` [Compound I-124], the IC50 in test [1], in test [2] (setting [5]) and in test [4] (setting [6]) was 100 to 1000 nM throughout.

Take `COc1nc(N[C@@H](C)c2nc3cc(Cl)ccc3[nH]c2=O)ncc1C#N` [Compound I-156, (S)-2-((1-(7-Chloro-3-oxo-3,4-dihydroquinoxalin-2-yl)ethyl)amino)-4-methoxy pyrimidine-5-carbonitrile]: the IC50 in test [2] (HCT-116, 24 h) was less than 100 nM; in test [3], 100 to 1000 nM; in test [4] (HCT-116, 24 h), 100 to 1000 nM.

With `C[C@H](Nc1ncc(C#N)c(N)n1)c1cc2cc(Cl)ccc2[nH]c1=O` [Compound I-37], the IC50 in test [1] is 100 to 1000 nM; in test [2] (setting [5]), 100 to 1000 nM; in test [4] (setting [6]), 1000 to 10000 nM.
